Experimental data taken from PMC5093939, “Teicoplanin-based antimicrobial therapy in Staphylococcus aureus bone and joint infection: tolerance, efficacy and experience with subcutaneous administration” (BMC Infectious Diseases, 2016).
Like-named read-outs stand apart in the source and are kept apart here. Marks after values point to notes of the source that are not given here.

Assays:
[1] = Teicoplanin-related adverse events (CTCAE) and their determinants; set-up: species or system human; settings: in vivo
Text: Teicoplanin-related adverse events (AE) occurring during follow-up were notified and classified according to the Common Terminology Criteria for Adverse Events (CTCAE, National Cancer Institute, 2003). Teicoplanin accountability in the AE occurrence was left to the clinician appreciation, with the help of a pharmacovigilance specialist in doubtful cases.

[2] = ref 12 (LeFrock et al), cited from earlier work
Text: These current difficulties in the field of BJI explain the limited and controversial data available on the efficacy of teicoplanin in staphylococcal BJI. In past studies, treatment success rate ranged from 53 to 91 % [11–14]. The low success rate observed in our study (60 %) may be explained by several factors. First, there is a significant selection bias as patients were recruited in a reference center dedicated to manage complex BJI with a high-risk of failure. In addition, most of past studies included native BJI with a relatively short follow-up (<1 year). Finally, pharmacodynamics par ...

[3] = tested on: S. aureus isolates; test: Susceptibility of staphylococcal isolates to teicoplanin; format: cell-based, Staphylococcus aureus; settings: all S. aureus isolates of the 65 episodes (MRSA 16.9 %); exact MIC not available; breakpoints ref 23
[4] = tested on: Staphylococcus aureus bone and joint infection; test: Outcome (treatment failure) of teicoplanin-treated S. aureus bone and joint infection and its determinants; format: in vivo, human
Text: BJI diagnosis was based upon the existence of clinical and biological evidences of infection, and at least one reliable bacteriological sample positive for S. aureus (i.e., percutaneous joint fluid aspiration, surgical sample, and/or blood culture). BJI were classified according to: i) the existence of orthopedic implant (i.e. joint prosthesis, peripheral or vertebral osteosynthesis); and ii) progression of infection, differentiating acute (≤3 weeks) versus chronic (>3 weeks) infection, calculated from the presumed date of inoculation (i.e., date of device implantation for postoperative orthopaedic device-related infection (ODI), or date of symptom onset for native BJI) up to diagnosis.
Treatment failure was defined as persisting infection under appropriate antimicrobial therapy, relapse after the interruption of antimicrobial therapy, necessity of surgical revision on the account of persisting septic focus ≥5 days after the first intervention, superinfections, and/or fatal outcome if BJI-related.

[5] = cited from earlier work
Text: However, the incidence of AE was probably been underestimated due to the retrospective nature of our study (memory bias for non-severe AE). Indeed, in the prospective study of LeFrock et al, the rate of AE was 35 %, requiring discontinuation of treatment in 17 % of the cases. […] The retrospective design may result in underestimating non-serious AE such as injection site reactions.

[6] = in vivo
Text: Patients diagnosed with staphylococcal BJI were identified by cross-referencing the prospective maintained databases of the regional referral center for BJI and the bacteriology laboratory, which list exhaustively all strains isolated from osteoarticular samples since 2001. Patients with diabetic foot- and decubitus ulcer-related BJI were excluded, as they require a specific management. If patients presented more than one osteoarticular infected site, they were considered as independent events for cohort description and outcome analysis, but pooled for tolerance and pharmacologic evaluation. For each patient, data were collected from medical records, nursing charts and biological software in an anonymous standardized case report form.
A Cmin >15 mg/L was taken as an acceptable therapeutic target. Patients with a Cmin >25 mg/L were considered as overexposure.
For intravenous (IV) administration, each dose was diluted in 100 mL of isotonic saline solution and administrated over a 30-min period. For subcutaneous (SC) injections, each dose was diluted in 50 mL of isotonic saline solution and delivered by a nurse during a 30- to 60-min gravity infusion using a butterfly disposable needle.
Descriptive statistics were used to estimate the frequencies of the study variables, described as percentages (%) for dichotomous variables, and medians (interquartile range (IQR)) for continuous variables. For the percentage calculation of each variable, the number of missing values was excluded from the denominator. Non-parametric statistical methods were used to compare the study groups (Chi-squared test, Fisher exact test and Mann–Whitney U test), as appropriate. […] Clinically pertinent variables with a p-value <0.15 in the univariate analysis were included in the final multivariate models. A value of p <0.05 was considered as significant. All analyses were performed using SPSS software version 19.0 (SPSS, Chicago, IL).

In the case of teicoplanin, the “Number of cutaneous rashes” value [1] is reported as 5, the “Number of episodes of headache” value [1] is reported as 1 and the Number of pancytopenia [1] is reported as “one”. The “OR (95%CI) of teicoplanin-related adverse event: administration route switch” value [1] was 0.221 (0.023-2.124), the “OR (95%CI) of teicoplanin-related adverse event: delay for Cmin >15 mg/L (days)” value [1] was 1.019 (0.769-1.351) and the “OR (95%CI) of teicoplanin-related adverse event: initial Cmin (day 3 to 5, mg/L)” value [1] was 0.818 (0.656-1.020). For the same substance, the “OR (95%CI) of teicoplanin-related adverse event: initial Cmin <15 mg/L” value [1] was 2.037 (0.213-19.494), the “OR (95%CI) of teicoplanin-related adverse event: loading dose (mg/kg/12h)” value [1] was 1.850 (0.001-4228.586)^b and the “OR (95%CI) of teicoplanin-related adverse event: loading dose given” value [1] was 0.889 (0.091-8.646). For the same substance, the “OR (95%CI) of teicoplanin-related adverse event: maintenance dose (mg/kg/24h)” value [1] was 5.150 (0.004-6359.356)^b, the “OR (95%CI) of teicoplanin-related adverse event: number of loading injections” value [1] was 0.870 (0.559-1.354) and the “Resolution of AE” value [1] was “Yes”. For the same substance, the “OR (95%CI) of teicoplanin-related adverse event: IV route” value ([1]; iv) was 0.571 (0.093-3.508), the “Teicoplanin-related AE” value ([1]; iv) was 4 (8.7 %) and the “Teicoplanin-related AE” value ([1]; sc) was 2 (14.3 %). For the same substance, the Cmin ([2]; average after 6 days, 6 mg/kg/day after 5 loading doses of 6 mg/kg/12 h) was 10000 ng/mL, the Cmin ([2]; average from the third day, 12 mg/kg/day after 5 loading doses of 12 mg/kg/12 h) was 20000 ng/mL and the “Susceptibility of staphylococcal isolates” value [3] was “susceptible”. For the same substance, the “Influence of administration route on outcome” value ([4]; IV versus SC, treatment failure analysis) was “did not influence the outcome”, the Limb amputations ([4]; among iterative surgical procedures, 65 episodes) was “two” and the “Risk of toxicity with dose increase” value ([5]; dose increase from 400 to 600 mg/day) was “not associated with an increased risk of toxicity”. For the same substance, the “Severe local reaction (grade ≥3)” value ([5]; prospective evaluation of SC teicoplanin in 30 patients, ref 29 (El Samad et al)) was “no severe local reaction”, the “Patients obtaining Cmin >15 mg/L within the first 2 weeks of treatment” value [6] was 66.1% and the “Subcutaneous versus intravenous route: pharmacokinetics and tolerance” value [6] was “no difference”. The “Delay for Cmin >15 mg/L” value ([6]; iv) was 9 (6–13) days, the “Initial Cmin <15 mg/L” value ([6]; iv) was 29 (74.4 %) and the “Initial Cmin >25 mg/L” value ([6]; iv) was 0 (0 %). For the same substance, the “Overdose (day 1 to 14), Cmin >25 mg/L” value ([6]; iv) was 8 (16.0 %), the “Delay for Cmin >15 mg/L” value ([6]; sc) was 7 (4.5–9.5) days and the “Initial Cmin <15 mg/L” value ([6]; sc) was 7 (70.0 %). The “Initial Cmin >25 mg/L” value ([6]; sc) was 0 (0 %) and the “Overdose (day 1 to 14), Cmin >25 mg/L” value ([6]; sc) was 2 (14.3 %).
